From PubChem BioAssay AID2060491 (Molecular Pharmacology Branch, DTP, NCI, 2025)

System: 857933-349-R-J2-PDC complex spheroids, viability
Experiment: Anticancer human tumor 857933-349-R-J2-PDC patient-derived colon adenocarcinoma cell line growth inhibition [GQUAD]
Conditions: for IC50: curve of first compound; for viability, T/C: stronger effect = lower value
Excerpt: DNA G-quadruplex Stabilizer Agents in Combinations in Complex Spheroids
A high-throughput screen of multi-cell type tumor spheroids was designed to identify active combinations of DNA G-quadruplex stabilizer agents and targeted small molecules. Complex spheroids include a stromal component modeled by human endothelial cells (HUVEC) and fibroblasts modeled by human mesenchymal stem cells (MSCs). The concentration ranges selected for each drug and investigational agent were based upon clinically achievable concentrations if the clinical Cmax of the agent was known.
Compounds. The drugs and investigational agents: pidnarulex (CX-5461; NSC782164), APTO-253 (NSC789042), BRACO-19 (NSC847499), peposertib (NSC802822), ceralasertib (NSC780249), elimusertib (NSC800525), camonsertib (NSC841442), AZD-1390 (NSC803789), olaparib (NSC753686), talazoparib (NSC767125), ART-558 (NSC835418), sotorasib (NSC818433), MRTX-1133 (NSC836407), SN-38 (NSC673596), topotecan (NSC609699), etoposide (NSC141540), doxorubicin (NSC123127), gemcitabine (NSC613327), 5-fluorouracil (NSC19893), paclitaxel (NSC125973), vemurafenib (NSC761431), panobinostat (NSC761190), R-306465 (JNJ-16241199; NSC773264), adavosertib (NSC754352), TP-3654 (NSC805149), carboplatin (NSC241240), KSQ-4279 (NSC840948), and staurosporine (NSC755774) were obtained from the National Cancer Institute (NCI) Developmental Therapeutics Program Chemical Repository (34). The FDA-approved anticancer drug set is available from the NCI Developmental Therapeutics Program. […] The stock solutions were prepared in dimethyl sulfoxide (DMSO, Sigma-Aldrich, St. Louis, MO, cat. D2650) at 800-fold the tested concentration and stored at -70 degrees C prior to their use. All drugs and investigational agents were tested over a range starting from a high concentration at or near the clinical Cmax and decreasing in half-log increments. If the clinical Cmax for an agent had not been determined, the highest concentration tested was 10 microM.
2.3 Cell Culture. All cells were maintained in an incubator at 37 degrees C and 5% CO2 with 95% humidity. The PDC lines were cultured according to standard operating procedures established by the NCI PDMR. All PDCs were thawed and cultured in Matrigel-coated flasks prepared with a working solution of 1X Ham's F-12 nutrient mix, without supplementation (Invitrogen, cat. 11765054), 100 U/mL penicillin-streptomycin (Invitrogen, cat. 15140122), and 2.5% Matrigel (Corning Inc., cat. 354248) for the first three passages. The 857933-349-R-J2-PDC line was cultured in 6C/Colon 1B media, which includes advanced DMEM/F-12 (Thermo Fisher Scientific, cat. 12634028), 10 mM HEPES (Thermo Fisher Scientific, cat. 15630080), 1X GlutaMAX supplement (Thermo Fisher Scientific, cat. 35050061), 0.1 mg/mL primocin (InvivoGen, cat. ant-pm-2), 10% defined fetal bovine serum, heat inactivated (HyClone Laboratories Inc., cat. SH30070.03HI), 50% L-WRN conditioned media (ATCC, cat. CRL-3276), 1.25 mM N-Acetyl-L-cysteine (Sigma-Aldrich, cat. A9165), 10 mM nicotinamide (Sigma-Aldrich, cat. N0636), 1X B-27 supplement (Thermo Fisher Scientific, cat. 17504044), 1X N-2 supplement (Thermo Fisher Scientific, cat. 17502048), 10 microM Y-27632 dihydrochloride (Tocris Bioscience, cat. 1254), and 50 ng/mL human EGF recombinant protein (Thermo Fisher Scientific, cat. PHG0311). The 485176-168-R4-J1-PDC line was cultured in Panc media, which includes all 6C/Colon 1B media components plus 100 ng/mL human FGF-10 (Thermo Fisher Scientific, cat. 100-26), 500 nM SB-431542 (Selleckchem, cat. S1067), and gastrin (Tocris, cat. 3006).
[…]

[1] = second compound 0.0316 µM, first compound 0.0316 µM
[2] = second compound 0.0316 µM, first compound 0.316 µM
[3] = second compound 0.1 µM, first compound 0.0316 µM
[4] = second compound 0.1 µM, first compound 0.316 µM
[5] = second compound 0.316 µM, first compound 0.0316 µM
[6] = second compound 0.316 µM, first compound 0.316 µM
[7] = second compound 1 µM, first compound 0.0316 µM
[8] = second compound 1 µM, first compound 0.316 µM
[9] = second compound 3.16 µM, first compound 0.0316 µM
[10] = second compound 3.16 µM, first compound 0.316 µM
[11] = second compound 10 µM, first compound 0.0316 µM
[12] = second compound 10 µM, first compound 0.316 µM
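Note: spheroids exposed to compounds for one week before readout.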
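Throughout, for viability, T/C: percent viability relative to vehicle DMSO wells taken as 100%.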

Compound: Cn1ncnc1[C@H]1c2n[nH]c(=O)c3cc(F)cc(c23)N[C@@H]1c1ccc(F)cc1 + Cc1[nH]c2ccc(F)cc2c1-c1nc2c3cccnc3c3ncccc3c2[nH]1
- IC50 (second compound 0.0316 µM): > 0.316 µM
- IC50 (second compound 0.1 µM): > 0.316 µM
- IC50 (second compound 0.316 µM): > 0.316 µM
- IC50 (second compound 1 µM): > 0.316 µM
- IC50 (second compound 3.16 µM): > 0.316 µM
- IC50 (second compound 10 µM): > 0.316 µM
- viability, T/C (second compound 0.0316 µM, first compound 0.000999 µM): 104%
- viability, T/C (second compound 0.0316 µM, first compound 0.00316 µM): 86%
- viability, T/C (second compound 0.0316 µM, first compound 0.00999 µM): 103%
- viability, T/C [1]: 89.7%
- viability, T/C (second compound 0.0316 µM, first compound 0.0999 µM): 106%
- viability, T/C [2]: 109%
- viability, T/C (second compound 0.1 µM, first compound 0.000999 µM): 95.8%
- viability, T/C (second compound 0.1 µM, first compound 0.00316 µM): 105%
- viability, T/C (second compound 0.1 µM, first compound 0.00999 µM): 98%
- viability, T/C [3]: 92.7%
- viability, T/C (second compound 0.1 µM, first compound 0.0999 µM): 102%
- viability, T/C [4]: 104%
- viability, T/C (second compound 0.316 µM, first compound 0.000999 µM): 97.3%
- viability, T/C (second compound 0.316 µM, first compound 0.00316 µM): 112%
- viability, T/C (second compound 0.316 µM, first compound 0.00999 µM): 97%
- viability, T/C [5]: 104%
- viability, T/C (second compound 0.316 µM, first compound 0.0999 µM): 102%
- viability, T/C [6]: 98.6%
- viability, T/C (second compound 1 µM, first compound 0.000999 µM): 96.1%
- viability, T/C (second compound 1 µM, first compound 0.00316 µM): 101%
- viability, T/C (second compound 1 µM, first compound 0.00999 µM): 97.4%
- viability, T/C [7]: 95.8%
- viability, T/C (second compound 1 µM, first compound 0.0999 µM): 104%
- viability, T/C [8]: 94.8%
- viability, T/C (second compound 3.16 µM, first compound 0.000999 µM): 92.2%
- viability, T/C (second compound 3.16 µM, first compound 0.00316 µM): 101%
- viability, T/C (second compound 3.16 µM, first compound 0.00999 µM): 91.9%
- viability, T/C [9]: 103%
- viability, T/C (second compound 3.16 µM, first compound 0.0999 µM): 114%
- viability, T/C [10]: 96.9%
- viability, T/C (second compound 10 µM, first compound 0.000999 µM): 102%
- viability, T/C (second compound 10 µM, first compound 0.00316 µM): 99.3%
- viability, T/C (second compound 10 µM, first compound 0.00999 µM): 97.1%
- viability, T/C [11]: 99.2%
- viability, T/C (second compound 10 µM, first compound 0.0999 µM): 104%
- viability, T/C [12]: 94.6%

Compound: COc1ncnc(C2CC2)c1-c1ncc2cnn(Cc3ccc(-c4nc(C(F)(F)F)cn4C(C)C)cc3)c2n1 + Cc1[nH]c2ccc(F)cc2c1-c1nc2c3cccnc3c3ncccc3c2[nH]1
- IC50 (second compound 0.0316 µM): > 10 µM
- IC50 (second compound 0.1 µM): > 10 µM
- IC50 (second compound 0.316 µM): > 10 µM
- IC50 (second compound 1 µM): > 10 µM
- IC50 (second compound 3.16 µM): > 10 µM
- IC50 (second compound 10 µM): > 10 µM
- viability, T/C [1]: 102%
- viability, T/C (second compound 0.0316 µM, first compound 0.1 µM): 104%
- viability, T/C [2]: 99%
- viability, T/C (second compound 0.0316 µM, first compound 1 µM): 104%
- viability, T/C (second compound 0.0316 µM, first compound 3.16 µM): 109%
- viability, T/C (second compound 0.0316 µM, first compound 10 µM): 103%
- viability, T/C [3]: 106%
- viability, T/C (second compound 0.1 µM, first compound 0.1 µM): 106%
- viability, T/C [4]: 107%
- viability, T/C (second compound 0.1 µM, first compound 1 µM): 106%
- viability, T/C (second compound 0.1 µM, first compound 3.16 µM): 98%
- viability, T/C (second compound 0.1 µM, first compound 10 µM): 102%
- viability, T/C [5]: 102%
- viability, T/C (second compound 0.316 µM, first compound 0.1 µM): 100%
- viability, T/C [6]: 96.1%
- viability, T/C (second compound 0.316 µM, first compound 1 µM): 100%
- viability, T/C (second compound 0.316 µM, first compound 3.16 µM): 94.3%
- viability, T/C (second compound 0.316 µM, first compound 10 µM): 95.6%
- viability, T/C [7]: 102%
- viability, T/C (second compound 1 µM, first compound 0.1 µM): 91.4%
- viability, T/C [8]: 96.3%
- viability, T/C (second compound 1 µM, first compound 1 µM): 87.9%
- viability, T/C (second compound 1 µM, first compound 3.16 µM): 98.4%
- viability, T/C (second compound 1 µM, first compound 10 µM): 90.7%
- viability, T/C [9]: 98%
- viability, T/C (second compound 3.16 µM, first compound 0.1 µM): 83.1%
- viability, T/C [10]: 84.5%
- viability, T/C (second compound 3.16 µM, first compound 1 µM): 83.2%
- viability, T/C (second compound 3.16 µM, first compound 3.16 µM): 92.5%
- viability, T/C (second compound 3.16 µM, first compound 10 µM): 83.4%
- viability, T/C [11]: 86.3%
- viability, T/C (second compound 10 µM, first compound 0.1 µM): 87.7%
- viability, T/C [12]: 84.6%
- viability, T/C (second compound 10 µM, first compound 1 µM): 91.3%
- viability, T/C (second compound 10 µM, first compound 3.16 µM): 90.3%
- viability, T/C (second compound 10 µM, first compound 10 µM): 88.2%
